What was measured:
[1] = test system: Rap1A processing by GGTase-I; test: Inhibition of Rap1A processing (geranylgeranylation) in oncogenic H-Ras-transformed NIH 3T3 cells, immunoblot; assay type: cell-based; details: read-out: IC50, block of Rap1A processing by GGTase-I
Experimental: (§1) The in vitro inhibition assays of GGTase-1 and FTase were carried out by measuring the [^3H]GGPP and [^3H]FPP incorporated into H-Ras-CVLL and H-Ras-CVLS, respectively, as previously described.^27 The in vivo inhibition of geranylgeranylation and farnesylation was determined based on the level of inhibition of Rap1A and H-Ras processing, respectively.^10 Briefly, oncogenic H-Ras-transformed NIH 3T3 cells were treated with various concentrations of inhibitors, and the cell lysates were separated on 12.5% SDS-PAGE. The separated proteins were transferred to nitrocellulose and immunoblotted using an anti-Ras antibody (Y13-258) or an anti-Rap1A antibody (SC-65). Antibody reactions were visualized using either peroxidase-conjugated goat anti-rat IgG or goat anti-rabbit IgG and an enhanced chemiluminescence detection system. The results of those assays appear in Table 1 (FIG. 9), Table 2 (FIG. 10) and Table 3 (FIG. 11).

[2] = molecular target: GGTase-I (Homo sapiens, UniProt P49354+P53609); test: In vitro GGTase-I inhibition ([3H]GGPP incorporation into H-Ras-CVLL); assay type: biochemical; details: Table 3, FIG. 11
Experimental: as §1

[3] = test system: A-549 human lung cancer cells; test: Antitumor activity in the nude mouse tumor xenograft model (A-549); assay type: in vivo; details: A-549 s.c. xenograft in nude mice; for inhibition of A-549 tumor growth: 28-34 days, versus vehicle; for average tumor size: over a period of 28-34 days, vehicle about 600 mm^3, s.c. osmotic mini-pumps
From the text: Antitumor activity in the nude mouse tumor xenograft model—Nude mice (Charles River, Wilmington, Mass.) were maintained in accordance with the Institutional Animal Care and Use Committee (IACUC) procedures and guidelines. A-549 cells were harvested, resuspended in PBS and injected s.c. into the right and left flank (7×10^6 cells per flank) of 8 week old female nude mice as reported previously (1, 2). When tumors reached 50 to 100 mm^3, animals either were implanted s.c. with 2-week osmotic mini-pumps (Alzet 2002, Alzet, Palo Alto, Calif.). The mini-pumps were implanted on the right flank and the tumor cells on the left flank. Control animals received a saline vehicle whereas treated animals were injected with either vehicle, GGTI-2154, GGTI-2418, GGTI-2432 and GGTI-2430. The tumor volumes were determined by measuring the length (l) and the width (w) and calculating the volume (V=lw^2/2) as described previously (30, 31).

Row | SMILES | IC50 [1] [µM] | inhibition of GGTase-I (activity in words) [2] | inhibition of A-549 tumor growth [3] [%] | average tumor size [3] [mm^3]
1 | COC(=O)[C@H](CC(C)C)NC(=O)N1CCN(Cc2nc[nH]c2C)C(=O)[C@@H]1Cc1ccccc1 [GGTI-2417] | 0.3 |  |  | 
2 | Cc1nc[nH]c1CN1CCN(C(=O)N[C@@H](CC(C)C)C(=O)O)[C@@H](Cc2ccccc2)C1=O [GGTI-2418] |  | exceptional activity | 57 | 280
3 | Cc1ccccc1-c1cc(NCc2cnc[nH]2)ccc1C(=O)N[C@@H](CC(C)C)C(=O)O [GGTI-2154, reference compound] |  |  | 66 | 250

From patent US7763620B2, “Piperazinone compounds as anti-tumor and anti-cancer agents and methods of treatment” (Yale University, priority 2001, dated 2010)
